Laboratory results published in PubChem BioAssay AID248 (DTP/NCI, 2004).
Values joined by “and” are separate entries in the source; they are usually repeats but may differ in a detail not shown here. Identical values can stand only once. Toxic doses and inconclusive results are not listed. No stated cut-off is given here; in the data, active means T/C of 150% or more; inactive means T/C below 125%.

Test system: L1210 leukemia ip in BDF1 mice, survival T/C
Experiment: NCI In Vivo Anticancer Drug Screen. Data for tumor model L1210 Leukemia (intraperitoneal) in B6D2F1 (BDF1) mice
Conditions: endpoint: mean survival time, higher = longer survival
Summary of the method: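 Tumor was transplanted into mice, which were then dosed with test compound or vehicle alone. Survival was recorded for each group, and the treated figure was expressed relative to the control figure.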

[1] = dose: 12.0 mg/kg/injection, schedule: Q01DX009 (ip), vehicle: saline
[2] = dose: 12.0 mg/kg/injection, schedule: Q04DX003 (ip), vehicle: saline
[3] = dose: 25.0 mg/kg/injection, schedule: Q01DX009 (ip), vehicle: saline
[4] = dose: 100.0 mg/kg/injection, schedule: Q01DX001 (ip), vehicle: Klucel (hydroxypropylcellulose) (HPC)
[5] = dose: 200.0 mg/kg/injection, schedule: Q01DX001 (ip), vehicle: Klucel (hydroxypropylcellulose) (HPC)

Measured: T/C

CCc1ccc(/C(C#N)=C/c2cccc3ccccc23)cc1
inactive: dose: 100.0 mg/kg/injection, schedule: Q04DX002 (ip), vehicle: alcohol 97 % of control | dose: 200.0 mg/kg/injection, schedule: Q04DX002 (ip), vehicle: alcohol 105 % of control | dose: 400.0 mg/kg/injection, schedule: Q04DX002 (ip), vehicle: alcohol 91 % of control

CC(=O)/C=C/c1ccccc1O
inactive: dose: 75.0 mg/kg/injection, schedule: Q04DX002 (ip), vehicle: gum acacia 98 % of control | dose: 150.0 mg/kg/injection, schedule: Q04DX002 (ip), vehicle: gum acacia 100 % of control | dose: 300.0 mg/kg/injection, schedule: Q04DX002 (ip), vehicle: gum acacia 100 % of control

CC1(C)N=C(N)N=C(N)N1c1ccccc1
inactive: [1] 104 % of control | [2] 97 % of control | [3] 99 % of control | dose: 25.0 mg/kg/injection, schedule: Q04DX003 (ip), vehicle: saline 101 % of control | dose: 50.0 mg/kg/injection, schedule: Q01DX009 (ip), vehicle: saline 98 % of control

COc1cc(N=Nc2ccc([N+](=O)[O-])cc2C)ccc1N
inactive: dose: 100.0 mg/kg/injection, schedule: Q01DX001 (ip), vehicle: other 97 % of control | dose: 200.0 mg/kg/injection, schedule: Q01DX001 (ip), vehicle: other 97 % of control | dose: 400.0 mg/kg/injection, schedule: Q01DX001 (ip), vehicle: other 86 % of control

O=C(C1CC1)C1OC1c1ccccc1 (centres undefined)
inactive: [4] 96 % of control | [5] 100 % of control | dose: 400.0 mg/kg/injection, schedule: Q01DX001 (ip), vehicle: Klucel (hydroxypropylcellulose) (HPC) 94 % of control

C=C(C)Cc1cnc(SC)[nH]c1=O
inactive: dose: 50.0 mg/kg/injection, schedule: Q01DX001 (ip), vehicle: Klucel (hydroxypropylcellulose) (HPC) 98 % of control | [4] 100 % of control | [5] 98 % of control

O=C(O)c1cccc(-n2cnc3c(=O)[nH]cnc32)c1
inactive: dose: 50.0 mg/kg/injection, schedule: Q01DX001 (ip), vehicle: saline 108 % of control | dose: 100.0 mg/kg/injection, schedule: Q01DX001 (ip), vehicle: saline 93 % of control | dose: 200.0 mg/kg/injection, schedule: Q01DX001 (ip), vehicle: saline 96 % of control | dose: 400.0 mg/kg/injection, schedule: Q01DX001 (ip), vehicle: saline 104 % of control

CCOC(=O)C(C)C(=O)C(=O)N=C(N)N (centres undefined)
inactive: dose: 100.0 mg/kg/injection, schedule: Q01DX009 (ip), vehicle: saline 102 % of control | dose: 100.0 mg/kg/injection, schedule: Q04DX003 (ip), vehicle: saline 101 % of control and 103 % of control | dose: 200.0 mg/kg/injection, schedule: Q01DX009 (ip), vehicle: saline 100 % of control | dose: 200.0 mg/kg/injection, schedule: Q04DX003 (ip), vehicle: saline 97 % of control | dose: 400.0 mg/kg/injection, schedule: Q01DX009 (ip), vehicle: saline 100 % of control | dose: 400.0 mg/kg/injection, schedule: Q04DX003 (ip), vehicle: saline 103 % of control and 104 % of control

COC(=O)C1=COC(C)C2CN3CCc4c([nH]c5cc(OC)ccc45)C3CC12 (centres undefined)
inactive: dose: 22.0 mg/kg/injection, schedule: Q01DX Z (ip), vehicle: other 100 % of control | dose: 44.0 mg/kg/injection, schedule: Q01DX Z (ip), vehicle: other 86 % of control

O=NNc1ccccn1
inactive: dose: 6.25 mg/kg/injection, schedule: Q04DX003 (ip), vehicle: saline 111 % of control | dose: 8.0 mg/kg/injection, schedule: Q01DX009 (ip), vehicle: saline 116 % of control | dose: 8.0 mg/kg/injection, schedule: Q04DX003 (ip), vehicle: saline 121 % of control and 123 % of control | [1] 106 % of control | dose: 18.0 mg/kg/injection, schedule: Q01DX009 (ip), vehicle: saline 119 % of control | dose: 50.0 mg/kg/injection, schedule: Q04DX003 (ip), vehicle: saline 114 % of control
active: [2] 156 % of control

CC(C)C1N=C(N)N=C(N)N1c1ccc(Cl)c(Cl)c1 (centres undefined)
inactive: dose: 75.0 mg/kg/injection, schedule: Q01DX001 (ip), vehicle: saline 105 % of control | dose: 150.0 mg/kg/injection, schedule: Q01DX001 (ip), vehicle: saline 96 % of control

CC1(C)N=C(N)N=C(N)N1c1ccc(OCCCOc2ccc(S(=O)(=O)F)cc2)c(Cl)c1
inactive: [3] 100 % of control

O=C1C2CCCC3CCCC(C(=O)N1NC1CCCCC1)C32 (centres undefined)
inactive: dose: 100.0 mg/kg/injection, schedule: Q04DX002 (ip), vehicle: saline with Tween-80 93 % of control | dose: 200.0 mg/kg/injection, schedule: Q04DX002 (ip), vehicle: saline with Tween-80 86 % of control
